Results published in US20190241569A1, “3-(ARYL OR HETEROARYL) METHYLENEINDOLIN-2-ONE DERIVATIVES AS INHIBITORS OF CANCER STEM CELL PATHWAY KINASES FOR THE TREATMENT OF CANCER” (Boston Biomedical, Inc., priority 2013, published 2019).
Where two headings read alike, the source gives them in different places.

How the values were obtained:
Assay type in all cases: cell-based
[1] = tested on: A549; experiment: Bulk cancer cells, Cell Titer-Glo 72 hours (Test Example 2); settings: Homo sapiens
Method: (§1) Tubes of 3× drug (60 uM in 500 uL complete media) were prepared from 5 mM stock solutions in DMSO. […] To treat cells, 50 uL of drug from the dilution plate was removed and added to the cell plates. […] Cells were harvested 72 hours after drug addition using Cell Titer-Glo (Promega) and luminescence measured on a plate reader.

[2] = tested on: FaDu; experiment: as above; settings: Homo sapiens
Method: as §1

[3] = tested on: ACHN; experiment: as above
Method: as §1

[4] = tested on: ACHN CSC; experiment: Cancer stem cells, Cell Titer-Glo 72 hours (Test Example 3)
[5] = tested on: FaDu CSC; experiment: as above
[6] = tested on: A549 CSC; experiment: as above; settings: Homo sapiens

| SMILES | IC50 [1] [µM] | IC50 [2] [µM] | IC50 ([3]; Homo sapiens, ACHN, 72 h) [µM] | IC50 ([4]; Homo sapiens, ACHN, 72 h) [µM] | IC50 ([5]; Homo sapiens, FaDu, 72 h) [µM] | IC50 [6] [µM] | IC50 [4] [µM] | IC50 [5] [µM] | IC50 [3] [µM] |
| --- | --- | --- | --- | --- | --- | --- | --- | --- | --- |
| CCN(CC)CCNC(=O)c1cc(C)c(/C=C2\C(=O)Nc3ccc(-c4csc(-c5ccccc5)n4)cc32)[nH]1 [Example 165] | 4 | 11.4 | 14.9 | 4.04 | 3.13 | 26.7 |  |  |  |
| CCN(CC)CCNC(=O)c1c(C)[nH]c(/C=C2\C(=O)Nc3cc(-c4cnc5ccccc5c4)ccc32)c1C [Example 257] | 15.8 | 12.9 |  | 1.07 | 2.83 | 11.6 |  |  |  |
| Cc1cc(C)c(/C=C2\C(=O)Nc3ccc(-c4cc(-c5ccccc5)ccn4)cc32)[nH]1 [Example 223] | 13.8 | 22.4 |  |  |  | 35.7 |  |  |  |
| Cc1[nH]c(/C=C2\C(=O)Nc3ccc(-c4csc(-c5ccccc5)n4)cc32)c(C)c1CCC(=O)O [Example 148] |  |  |  |  |  | 1.65 |  |  |  |
| Cc1[nH]c(/C=C2\C(=O)Nc3ccc(-c4csc(-c5ccccc5)n4)cc32)c(C)c1S(=O)(=O)N1CCCC1 [Example 146] | 2.86 | 5.48 | 12.6 | 5.05 | 6.56 |  |  |  |  |
| Cc1cc(C)c(/C=C2\C(=O)Nc3ccc(-c4cccc5ncccc45)cc32)[nH]1 [Example 259] | 11.1 | 13.4 | 13.2 |  | 13.1 | 40 |  |  |  |
| Cc1cc(C)c(/C=C2\C(=O)Nc3ccc(-c4ncccc4C)cc32)[nH]1 [Example 225] |  |  |  |  |  |  | 0.01 | 47.4 |  |
| CCN(CC)CCNC(=O)c1c(C)[nH]c(/C=C2\C(=O)Nc3ccc(-c4csc(C5CCNC5)n4)cc32)c1C (centres unmarked) [Example 133] | 0.72 | 2.42 | 6.75 |  |  | 32.5 |  |  |  |
| Cc1cc(C)c(/C=C2\C(=O)Nc3cc(-c4cnc5ccccc5n4)ccc32)[nH]1 [Example 242] | 18.2 |  |  | 2.54 | 8.8 | 5.83 |  |  |  |
| Cc1cc(C)c(/C=C2\C(=O)Nc3ccc(-c4ncccn4)cc32)[nH]1 [Example 236] |  | 26.1 | 25.3 |  | 25.2 | 28.7 |  |  |  |
| Cc1cc(C)c(/C=C2\C(=O)Nc3ccc(-c4cnc(-c5ccccc5)cn4)cc32)[nH]1 [Example 233] |  |  |  | 6.8 |  |  |  |  |  |
| CCN(CC)CCNC(=O)c1c(C)[nH]c(/C=C2\C(=O)Nc3ccc(-c4csc(C(=O)O)c4)cc32)c1C [Example 202] | 7.79 |  | 7.74 | 1.28 | 14.1 | 14.1 |  |  |  |
| CCN(CC)CCNC(=O)c1c(C)[nH]c(/C=C2\C(=O)Nc3ccc(-c4ccc5ccccc5n4)cc32)c1C [Example 186] | 1.8 | 0.92 | 2.74 | 0.33 |  | 1.51 |  |  |  |
| CCOC(=O)c1[nH]c(/C=C2\C(=O)Nc3ccc(-c4csc(-c5ccccc5)n4)cc32)c2c1CCCC2 [Example 164] |  |  | 0.83 | 1.6 | 2.91 |  |  |  |  |
| CCN(CC)CCN1CCCc2[nH]c(/C=C3\C(=O)Nc4ccc(-c5csc(C6CCNCC6)n5)cc43)c(C)c2C1=O [Example 178] | 7.06 | 8.67 |  | 11.9 |  |  |  |  |  |
| CCN(CC)CCNC(=O)c1c(C)[nH]c(/C=C2\C(=O)Nc3cc(-c4csc(-c5ccccc5)n4)ccc32)c1C [Example 7] |  | 1.8 |  | 0.19 | 0.6 | 3.73 |  |  |  |
| CCN(CC)CCNC(=O)c1c(C)[nH]c(/C=C2\C(=O)Nc3ccc(-c4cnc(-c5ccccc5)cn4)cc32)c1C [Example 199] | 16.9 | 17.5 | 25.8 |  | 39.1 | 43.6 |  |  |  |
| Cc1[nH]c(/C=C2\C(=O)Nc3ccc(-c4cnn(-c5ccccn5)c4)cc32)c(C)c1C(=O)N1CCN(C)CC1 [Example 31] | 18.9 | 3.67 |  |  | 0.24 | 11.7 |  |  |  |
| O=C1Nc2ccc(-c3csc(-c4ccncc4)n3)cc2/C1=C/c1cc2c([nH]1)CCCC2 [Example 156] |  |  | 37.8 |  |  | 0.8 |  |  |  |
| O=C1Nc2ccc(-c3csc(-c4ccccc4)n3)cc2/C1=C/c1[nH]cc2ccccc12 [Example 162] |  |  |  | 4.08 | 5.04 |  |  |  |  |
| Cc1cc(C)c(/C=C2\C(=O)Nc3ccc(-c4cnsc4)cc32)[nH]1 [Example 220] |  | 26.7 | 42.8 | 17.1 | 43.4 |  |  |  |  |
| Cc1cc(C)c(/C=C2\C(=O)Nc3cc(-c4ccncc4)ccc32)[nH]1 [Example 250] |  | 18.4 |  |  |  | 0.98 |  |  |  |
| Cc1cc(C)c(/C=C2\C(=O)Nc3ccc(-c4cnc5ccccn45)cc32)[nH]1 [Example 224] | 16.6 | 11.4 | 25.2 |  | 17 | 20.2 |  |  |  |

| SMILES | IC50 [1] [µM] | IC50 [2] [µM] | IC50 ([3]; Homo sapiens, ACHN, 72 h) [µM] | IC50 ([4]; Homo sapiens, ACHN, 72 h) [µM] | IC50 ([5]; Homo sapiens, FaDu, 72 h) [µM] | IC50 [6] [µM] | IC50 [4] [µM] | IC50 [5] [µM] | IC50 [3] [µM] |
| --- | --- | --- | --- | --- | --- | --- | --- | --- | --- |
| O=C1Nc2ccc(-c3csc(-c4ccccc4)n3)cc2/C1=C/c1cc2c([nH]1)CCCC2 [Example 155] |  | 20.2 | 34.6 | 2.52 | 4.09 | 1.42 |  |  |  |
| CCN(CC)CCNC(=O)c1c(C)[nH]c(/C=C2\C(=O)Nc3cc(-c4ccc(-c5ccccc5)nc4)ccc32)c1C [Example 249] | 14.8 |  |  | 0.21 | 1.12 | 3.59 |  |  |  |
| CCN(CC)CCNC(=O)c1c(C)[nH]c(/C=C2\C(=O)Nc3ccc(-c4n[nH]c5c(N)cccc45)cc32)c1C [Example 268] | 11.6 | 7.09 | 12 | 30.9 | 28.4 |  |  |  |  |
| CCN(CC)CCNC(=O)c1c(C)[nH]c(/C=C2\C(=O)Nc3ccc(-c4csc(-c5ccc(C)cc5)n4)cc32)c1C [Example 102] |  |  |  | 0.69 | 3.4 | 10.5 |  |  |  |
| Cc1ccc(-c2ccc3c(c2)/C(=C/c2[nH]c(C)cc2C)C(=O)N3)cn1 [Example 213] | 25.8 |  | 24.9 |  |  |  | 0.01 |  |  |
| Cc1cc(C)c(/C=C2\C(=O)Nc3ccc(-c4cnc5cccnn45)cc32)[nH]1 [Example 234] | 12.5 | 5.23 |  |  | 1.55 | 8.66 |  |  |  |
| Cc1ccc(-c2ccc3c(c2)/C(=C/c2[nH]c(C)cc2C)C(=O)N3)cn1 [Example 228] |  |  |  |  |  | 25.4 | 3.42 |  | 22.4 |
| CSc1cnc(-c2ccc3c(c2)/C(=C/c2[nH]c(C)cc2C)C(=O)N3)cn1 [Example 221] | 35.8 |  | 0.16 | 18.3 |  |  |  |  |  |
| Cc1cc(C)c(/C=C2\C(=O)Nc3ccc(-c4ncccc4C)cc32)[nH]1 [Example 211] | 22.4 |  | 7.95 | 0.01 | 41.1 |  |  |  |  |
| Cc1[nH]c(/C=C2\C(=O)Nc3ccc(-c4cnn(-c5ccccc5)c4)cc32)c(C)c1C(=O)N1CCN(C)CC1 [Example 6] | 6.91 | 3.62 | 3.4 |  | 0.31 | 4.49 |  |  |  |
| CCN(CC)CCNC(=O)c1c(C)[nH]c(/C=C2\C(=O)Nc3cc(-c4nccc5ccccc45)ccc32)c1C [Example 255] | 7.14 | 9.12 | 6.51 | 1.91 | 24.4 |  |  |  |  |
| CCN(CC)CCNC(=O)c1c(C)[nH]c(/C=C2\C(=O)Nc3cc(-c4ccc(-c5ccccc5)cn4)ccc32)c1C [Example 256] |  | 19.8 |  | 2.88 | 1.18 | 4.93 |  |  |  |
| Cc1ccc(-c2ccc3c(c2)NC(=O)/C3=C\c2[nH]c(C)cc2C)cn1 [Example 244] |  |  | 22 | 4.55 | 3.61 | 23.7 |  |  |  |
| CCN(CC)CCNC(=O)c1c(C)[nH]c(/C=C2\C(=O)Nc3ccc(-c4cnc(SC)cn4)cc32)c1C [Example 201] | 6.06 | 5.96 | 12.3 |  |  | 30 |  |  |  |
| CCOC(=O)c1cc(C)c(/C=C2\C(=O)Nc3ccc(-c4csc(-c5ccccc5)n4)cc32)[nH]1 [Example 161] | 40 | 13.5 | 0.39 |  |  | 13.2 |  |  |  |
| O=C1Nc2ccc(-c3csc(-c4ccncc4)n3)cc2/C1=C/c1ncc[nH]1 [Example 153] | 14.8 | 3.42 | 0.29 | 9.21 |  | 2.6 |  |  |  |
| CCN(CC)CCNC(=O)c1c(C)[nH]c(/C=C2\C(=O)Nc3cc(-c4ccc5ccccc5n4)ccc32)c1C [Example 253] | 16.4 | 16.6 |  | 1.36 | 5.15 | 6.59 |  |  |  |
| Cc1cc(C)c(/C=C2\C(=O)Nc3ccc(-c4ccncc4)cc32)[nH]1 [Example 238] |  |  |  | 6.95 |  |  |  |  |  |
| Cc1cc(C)c(/C=C2\C(=O)Nc3ccc(-c4csc(-n5cccn5)n4)cc32)[nH]1 [Example 232] | 9.76 | 20.8 | 9 |  | 27.2 | 16.2 |  |  |  |
| Cc1ccc(-c2nc(-c3ccc4c(c3)/C(=C/c3[nH]c(C)c(C(=O)N5CCN(C)CC5)c3C)C(=O)N4)cs2)cc1 [Example 104] | 8.55 | 7.87 | 4.25 |  | 1.98 | 0.45 |  |  |  |
| Cc1cc(C)c(/C=C2\C(=O)Nc3ccc(-c4ccccn4)cc32)[nH]1 [Example 226] |  |  |  | 0.02 |  |  |  |  |  |
| O=C1Nc2ccc(-c3csc(-c4ccccc4)n3)cc2/C1=C/c1cnc[nH]1 [Example 151] | 11.2 | 6.14 | 8.74 |  | 6.32 | 0.9 |  |  |  |
| Cc1ccc(-c2ccc3c(c2)/C(=C/c2[nH]c(C)cc2C)C(=O)N3)nc1 [Example 216] |  | 37.3 |  | 0.05 |  |  |  |  |  |
